Test results reported in patent EP4147700A1, “N-(4-(AZAINDAZOL-6-YL)-PHENYL)-SULFONAMIDES FOR USE IN THE TREATMENT OF SICKLE CELL DISEASE” (LQT Therapeutics Inc., priority 2021, dated 2023).

What was measured:
human CD34+ cells = details: for F-cell (HbF+) frequency in enucleated GlyA+ cells / fold change in fetal hemoglobin expression: 14 days of differentiation; for F-cell (HbF+) frequency in enucleated GlyA+ cells: compared to control (DMSO) (FIG. 3A); for fold change in fetal hemoglobin expression: human CD34+ cells, compared to control (Vehicle as DMSO) (FIG. 3B)
Protocol: Mobilized CD34+ Human Stem/Progenitor Cells (HSPC) from healthy individuals were cultured for 3 days in a maintenance media consisting of X-VIVO 10 (VWR), 100 U/mL penicillin-streptomycin (ThermoFisher), 2mM L-glutamine (Fisher Scientific), 100 ng/mL Recombinant Human Stem Cell Factor (SCF), 100 ng/mL Recombinant Human Thrombopoietin (TPO) and 100 ng/mL Recombinant Human Flt-3 Ligand (Flt-3L) (all three from ThermoFisher). Cells were differentiated into erythroid cells using a three-step differentiation protocol developed by the Luc Douay group (Giarratana et al. 2005). In brief, CD34+ cells were cultured for 7 days in Step 1 media, consisting of Iscove's modified Dulbecco's medium (IMDM) (ThermoFisher) supplemented with 1X GlutaMAX, 100 U/mL penicillin-streptomycin (ThermoFisher), 5% human AB+plasma, 330 ug/mL human holo-transferrin, 10 ug/mL human insulin, 2 U/mL heparin, 1 uM/mL hydrocortisone (Sigma-Aldrich), 3 U/mL recombinant human erythropoietin (EPO) (ThermoFisher), 100 ng/mL SCF (ThermoFisher) and 5 ng/mL interleukin 3 (IL-3) (SigmaAldrich). On day 7, cells were transferred to step 2 media, a step 1 media without hydrocortisone and IL-3 and cultured for 3-4 days. Then cells were cultured for 8-9 days in step 3 media, a step 2 media without SCF. […] To determine the percentage of HbF-positive cells (F-cells), differentiated cells were fixed and permeabilized using a fixation kit (ThermoFisher). Cells were stained with PE-Cy7-conjugated anti-CD235 or PE-conjugated anti-CD71 antibodies. HbF levels were detected using Allophycocyanin (APC)-conjugated anti-HbF antibody (ThermoFisher). The acquisition of stained cells was performed on BD FACSCanto™ and the analysis was run using FlowJo™ Software.
After 14 days of differentiation, cells were fixed and stained with CD235a, CD71 and fetal hemoglobin antibodies for flowcytometry analysis.

[1] = system: CD34+ cells from patients with sickle cell disease; details: for F-cell (HbF+) frequency in enucleated GlyA+ cells: CD34+ cells from patients with sickle cell disease, compared to control (DMSO) (FIG. 4A)
Excerpt: To measure the effect of Compound 346 on fetal hemoglobin induction in CD34+ cells from patients with sickle cell disease, circulating CD34+ progenitor cells were isolated from total blood obtained from sickle cell patients, by performing a positive selection for CD34+ cells with magnetic beads (Miltenyi Biotec). Purified CD34+ cells were differentiated for 14 days. After differentiation, cells were fixed and stained with CD235a, CD71 and fetal hemoglobin antibodies for flowcytometry analysis.

SGK1 = target: T1, SGK1 (Homo sapiens, UniProt O00141); assay: SGK1 target engagement: Western blot of SGK1 phosphorylation at Thr256 in CD34+ cells; type: cell-based; details: CD34+ cells from a healthy donor, day 11 of differentiation, 1h after exposure (FIG. 5)
T1 construct: endogenous in cells; host or cells: Mobilized human CD34+ HSPC from a healthy donor, day 11 of erythroid differentiation
T1 sequence (O00141 1-431): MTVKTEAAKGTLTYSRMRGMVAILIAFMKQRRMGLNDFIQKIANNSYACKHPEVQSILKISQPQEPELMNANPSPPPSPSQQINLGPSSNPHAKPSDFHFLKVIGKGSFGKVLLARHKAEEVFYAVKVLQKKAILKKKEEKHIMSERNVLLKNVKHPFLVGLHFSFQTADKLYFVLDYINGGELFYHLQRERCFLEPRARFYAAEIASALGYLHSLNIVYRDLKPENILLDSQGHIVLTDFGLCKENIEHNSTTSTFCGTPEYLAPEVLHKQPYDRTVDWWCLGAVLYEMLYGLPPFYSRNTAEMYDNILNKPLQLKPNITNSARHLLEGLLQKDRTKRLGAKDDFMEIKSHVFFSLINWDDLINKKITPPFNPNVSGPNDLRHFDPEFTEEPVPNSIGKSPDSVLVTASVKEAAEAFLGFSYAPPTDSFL
Protocol: (§1) To verify SGK1 target engagement by Compound 346, CD34+ cells from a healthy donor were exposed to Compound 346 at the indicated dose (µM), harvested and lysed at the indicated time points. Phosphorylation of SGK1 at threonine 256 (Thr256) was assessed by Western blot using antibody anti-pSGK1 (Thr256) (Thermofisher) and anti-SGK1 (Cell Signaling). Human CD34+ cells, cells were collected on Day 11 of differentiation then exposed to Compound 346. According to the time course, cells were collected and lysed using RIPA buffer mixed with a phosphatase and protease inhibitors cocktail (Thermofisher). Sample protein concentrations were measured with the Pierce […] (ThermoFisher). The α-tubulin antibody (Cell Signaling) served as an internal control. Immunoreactive proteins were visualized by using an ECL® (enhanced chemiluminescence) detection system (BioRad). Optical density was measured with ImageJ software (National Institutes of Health, Bethesda, MD) and the ratio of phospho-SGK1 to total SGK1 was calculated, normalized on α-tubulin, and plotted based on the densitometry measurements. […] Furthermore, SGK1 downstream pathway activation was verified by measuring phosphorylation of FOXO3 at Serine 315, a direct target of activated SGK1. Quantification of FOXO3 activation was assessed by Western Blot using antibodies anti-pFOXO3 (Ser315) and anti-FOXO3 (Cell Signaling). […]

FOXO3 = assay: SGK1 downstream pathway: Western blot of FOXO3 phosphorylation at Serine 315 in CD34+ cells; type: cell-based, human; details: CD34+ cells from a healthy donor, day 11 of differentiation, 1-hour time point, densitometry (FIG. 5)
Protocol: as §1

sickle erythroid cells = assay: Sickling assay under hypoxia (ImageStream flow cytometry) of 21-day differentiated erythroid cells; type: cell-based, human; details: cells derived from CD34+ cells of sickle patients, 21 days of differentiation, 4 hours at 2% oxygen, compared to vehicle, p < 0.01 (FIG. 6)
Protocol: To evaluate the effect of Compound 346 in sickle erythroid cells sickling, a sickling assay was conducted. […] Purified CD34+ cells were differentiated for 21 days. At the end of the differentiation, cells were incubated for 4 hours at 2% of oxygen in Hemox Buffer (Fisher Scientific) supplemented with 10mM Glutamine (Gibco) and 0.5% BSA (Sigma Aldrich). After exposure to hypoxia, cells were fixed with 25% of glutaraldehyde (Sigma Aldrich) and transferred to tubes for flowcytometry analysis, using a Amnis® ImageStream® flow cytometer to assess abnormal shaped cells. Cells were determined using RMS of brightfield image, and single cells using Area vs Aspect Ratio of brightfield image, and live cells were identified using a Live Dead NIR stain. Single living cells were analyzed using the following masking of the brightfield image: Skeleton (M1, Ch1, Thin), Object (M1, Ch1, Tight). Finally, the sickling factor was calculated using the following feature: Length_Skeleton (M1, CH1, Thin)/Width_(M1, Ch1, Tight). Cells with a sickle factor feature of 1.4 or higher were sickled. Cells with a sickle factor feature less than 1.4 were not sickled.

[2] = CD34+ HSPC from healthy individuals

| SMILES | F-cell (HbF+) frequency in enucleated GlyA+ cells (human CD34+ cells; [2]) | fold change in fetal hemoglobin expression (human CD34+ cells) | F-cell (HbF+) frequency in enucleated GlyA+ cells [1] | p-SGK1 (Thr256), ratio of phospho-SGK1 to total SGK1 (SGK1) | increase of HbF+ cells (HbF+ fold change to control) (human CD34+ cells; CD34+ HSPC from healthy individuals, 21 days of differentiation, compared to DMSO (FIG. 2B)) | frequency of F-cells (HbF+) (human CD34+ cells; CD34+ HSPC from healthy individuals, 21 days of differentiation, compared to vehicle (DMSO) (FIG. 2A)) | HbF+ fold change to control ([1]; CD34+ cells from sickle cell patients, 14 days of differentiation, compared to control (Vehicle as DMSO) (FIG. 4B)) [fold] | phosphorylation of FOXO3 at Serine 315 (FOXO3) | sickling of erythroid cells induced by hypoxia (sickle erythroid cells) |
| --- | --- | --- | --- | --- | --- | --- | --- | --- | --- |
| NC(=O)NO [Hydroxyurea, hydroxyurea, reference compound] | increases | 1,5 fold | increase | – | – | – | – | – | – |
| Cc1n[nH]c2nc(-c3ccc(NS(=O)(=O)c4cc(Cl)ccc4F)cc3)nc(OC3CCN(C(C)C)CC3)c12 [Compound 346] | increases | 1,5 fold | increasing | decrease | about 1.5 fold | increased | 1.5 | decrease | significantly protected from sickling |
